Assay [1] addresses T1, CETP (Homo sapiens, UniProt P11597).
T1 construct: CETP is obtained in partially purified form from human plasma; from tissue; host or cells: human plasma
T1 sequence (P11597 18-493): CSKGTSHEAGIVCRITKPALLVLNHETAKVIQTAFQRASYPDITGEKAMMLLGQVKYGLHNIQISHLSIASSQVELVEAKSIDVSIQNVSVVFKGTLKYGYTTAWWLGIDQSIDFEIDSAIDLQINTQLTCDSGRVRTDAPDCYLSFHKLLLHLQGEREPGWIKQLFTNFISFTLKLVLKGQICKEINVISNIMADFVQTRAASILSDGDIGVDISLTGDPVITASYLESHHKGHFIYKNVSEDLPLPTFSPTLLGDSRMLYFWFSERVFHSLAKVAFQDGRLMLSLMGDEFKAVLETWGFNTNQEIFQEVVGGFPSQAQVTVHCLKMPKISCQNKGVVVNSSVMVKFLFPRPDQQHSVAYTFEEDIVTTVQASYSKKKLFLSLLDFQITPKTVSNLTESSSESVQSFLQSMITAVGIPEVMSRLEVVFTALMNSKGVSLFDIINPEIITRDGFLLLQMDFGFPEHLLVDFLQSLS
Put plainly: CETP fluorescence test. In kind it is biochemical. Conditions: CETP from human plasma, 37° C., 4 hours; read-out: IC50 (nM) Fluor. test. As for the experimental part:
(§1) CETP is obtained in partially purified form from human plasma by differential centrifugation and column chromatography and used for the test. To this end, human plasma is adjusted to a density of 1.21 g per ml using NaBr and centrifuged at 4° C. at 50000 rpm for 18 h. The bottom fraction (d>1.21 g/ml) is applied to a Sephadex® Phenyl-Sepharose 4B (Pharmacia) column, washed with 0.15 M NaCl/0.001 M tris HCl pH 7.4 and then eluted with dist. water. Die CETP-active fractions are pooled, dialysed against 50 mM Na acetate pH 4.5 and applied to a CM-Sepharose® (Pharmacia) column. The mixture is then eluted using a linear gradient (0-1 M NaCl). The pooled CETP fractions are dialysed against 10 mM TrisHCl pH 7.4 and then further purified by chromatography on a Mono Q® column (Pharmacia).
Measurement of the CETP-catalysed transfer of a fluorescent cholesterol ester between liposomes—modified according to the procedure of Bisgaier et al., J. Lipid Res. 34, 1625 (1993).
For the production of the donor liposomes, 1 mg of cholesteryl 4,4-difluoro-5,7-dimethyl-4-bora-3a,4a-diaza-s-indacene-3-dodecanoate (cholesteryl BODIPY® FL C12, Molecular Probes) is dissolved in 600 μl of dioxane with 5.35 mg of triolein and 6.67 mg of phosphatidylcholine with gentle warming in an ultrasonic bath and this solution is added very slowly with ultrasonication to 63 ml of 50 mM tris/HCl, 150 mM NaCl, 2 mM EDTA buffer pH 7.3 at RT.
The suspension is then ultrasonicated under an N2 atmosphere for 30 minutes in the Braukson ultrasonic bath at about 50 watts, the temperature being kept at about 20° C.
The acceptor liposomes are obtained analogously from 86 mg of cholesteryl oleate, 20 mg of triolein and 100 mg of phosphatidylcholine dissolved in 1.2 ml of dioxane and 114 ml of above buffer by ultrasonication at 50 watts (20° C.) for 30 minutes.
For testing, a test mix consisting of 1 part of above buffer, 1 part of donor liposomes and 2 parts of acceptor liposomes is used.
80 μl of test mix are treated with 1-3 μg of enriched CETP fraction, obtained from human plasma by means of hydrophobic chromatography, and 2 μl of the substance to be investigated in DMSO and incubated at 37° C. for 4 hours.
The change in the fluorescence at 485/535 nm is a measure of the CE transfer; the inhibition of the transfer in comparison to the control batch without substance is determined.

Assay [2] addresses T1, CETP. Put plainly: CETP-SPA test. The format is biochemical. Conditions: 3H-cholesterol ester transfer from HDL to biotin-LDL, 37° C., 18 h. As for the experimental part: as §1
50 ml of fresh human EDTA plasma are adjusted to a density of 1.12 using NaBr and centrifuged at 4° C. in a Ty 65 rotor at 50000 rpm for 18 h. The upper phase is used for the obtainment of cold LDL. The lower phase is dialysed against 3×41 of PDB buffer (10 mM tris/HCl pH 7.4, […], 1 mM EDTA, 0.02% NaN3). Per 10 ml of retentate volume, 20 μl of 3H-cholesterol (Dupont NET-725; 1 μC/μl dissolved in ethanol!) is then added and the mixture is incubated at 37° C. under N2 for 72 h.
The batch is then adjusted to the density 1.21 using NaBr and centrifuged at 20° C. in a Ty 65 rotor at 50000 rpm for 18 h. The upper phase is recovered and the lipoprotein fractions are purified by gradient centrifugation. To this end, the isolated, labelled lipoprotein fraction is adjusted to a density of 1.26 using NaBr. 4 ml each of this solution are covered in centrifuged tubes (SW 40 rotor) with a layer of 4 ml of a solution of density 1.21 and 4.5 ml of a solution of 1.063 (density solutions of PDB buffer and NaBr) and then centrifuged for 24 h at 38000 rpm and 20° C. in the SW 40 rotor. The intermediate layer lying between the density 1.063 and 1.21, containing the labelled HDL, is dialysed against 3×100 volumes of PDB buffer at 4° C.
The retentate contains radiolabelled ^3H-CE-HDL, which, adjusted to about 5×10^6 cmp per ml, is used for the test.
For testing of the CETP activity, the transfer of ^3H-cholesterol ester from human HD lipoproteins to biotinylated LD lipoproteins is measured.
The reaction is ended by addition of streptavidin-SPA®beads (Amersham) and the transferred radioactivity is determined directly in a liquid scintillation counter.
In the test batch, 10 μl of HDL-^3H-cholesterol ester (˜50000 cpm) are incubated at 37° C. for 18 h with 10 μl of biotin-LDL (Amersham) in 50 mM Hepes/0.15 M NaCl/0.1% bovine serum albumin/0.05% NaN3 pH 7.4 containing 10 μl of CETP (1 mg/ml) and 3 μl of solution of the substance to be tested (dissolved in 10% DMSO/1% RSA). 200 μl of the SPA-streptavidin bead solution (TRKQ 7005) are then added, incubated further with shaking for 1 h and then measured in a scintillation counter.
Corresponding incubations with 10 μl of buffer, 10 μl of CETP at 4° C. and 10 μl of CETP at 37° C. serve as controls.
The activity transferred in the control batches with CETP at 37° C. is rated as 100% transfer. The substance concentration at which this transfer is reduced to half is specified as the IC50 value.

Molecules are shown by their SMILES.

A word on the IC50: it is the midpoint of a concentration-inhibition curve. For the molecule `CC(C)c1nc2c(c(-c3ccc(F)cc3)c1[C@@H](O)c1ccc(C(F)(F)F)cc1)[C@@H](O)CC1(CCC1)C2` [Example 51, (5S)-2-Isopropyl-4-(4-fluorophenyl)-3-[(S)-hydroxy-(4-trifluoromethylphenyl)-methyl]-7-spirocyclobutyl-5,6,7,8-tetrahydroquinolin-5-ol], the IC50 at CETP [1] amounted to 12 nM; against CETP [2], 15 nM.

Regarding `CC(C)c1nc2c(c(-c3ccccc3)c1[C@@H](O)c1ccc(C(F)(F)F)cc1)[C@@H](O)CC1(CCC1)C2` [Example 53, (5S)-2-Isopropyl-4-phenyl-3-[(S)-hydroxy-(4-trifluoromethylphenyl)-methyl]-7-spirocyclobutyl-5,6,7,8-tetrahydroquinolin-5-ol], the IC50 on CETP [1] and on CETP [2] was 30 nM each time.

In the case of `CC(C)c1nc2c(c(-c3cccs3)c1[C@@H](O)c1ccc(C(F)(F)F)cc1)[C@@H](O)CC1(CCC1)C2` [Example 61, (5S)-2-Isopropyl-4-(2-thienyl)-3-[(S)-hydroxy-(4-trifluoromethylphenyl)-methyl]-7-spirocyclobutyl-5,6,7,8-tetrahydroquinolin-5-ol], the concentration for half-maximal inhibition (IC50) was found to be 30 nM at CETP [1] and 40 nM at CETP [2].
